Data published in patent US20030157583A1, “Methods for determining squalene synthase activity” (priority 2001, published 2003).

T1: truncated squalene synthase (tSqS) (Arabidopsis thaliana, UniProt P53799)
T1 sequence (P53799 1-388 limits assumed): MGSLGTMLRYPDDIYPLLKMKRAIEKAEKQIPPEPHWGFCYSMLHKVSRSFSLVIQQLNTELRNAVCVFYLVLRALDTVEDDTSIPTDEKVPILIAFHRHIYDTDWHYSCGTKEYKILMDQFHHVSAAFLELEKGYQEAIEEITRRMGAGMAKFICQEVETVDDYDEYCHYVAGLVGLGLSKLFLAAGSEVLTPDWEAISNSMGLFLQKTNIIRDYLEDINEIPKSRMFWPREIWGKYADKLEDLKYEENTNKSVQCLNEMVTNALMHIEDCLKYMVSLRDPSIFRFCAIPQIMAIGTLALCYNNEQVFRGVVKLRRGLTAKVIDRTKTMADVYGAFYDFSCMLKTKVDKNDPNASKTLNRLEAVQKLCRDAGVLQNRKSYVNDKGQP

B1: truncated squalene synthase (tSqS) (Arabidopsis thaliana) (protein)
chain: T1 sequence (P53799 1-388 limits assumed)

Columns and labels:
[1] = target: T1, truncated squalene synthase (tSqS); assay: biochemical
Source text: The conversion of the intermediate PSPP into squalene requires magnesium as a cofactor.

[2] = substrate: CC(C)=CCC/C(C)=C/CC/C(C)=C/CO[P@@](=O)(O)OP(=O)(O)O; assay: purified protein, by the assay type; conditions: other: initial velocity vs FPP concentration, 50 ng tSqS, 100 μM NADPH, 10 mM MgCl2, 37° C., pH 7.5

Molecule	IC50 [1] [mM]	Km [2] [µM]
O=C(O)CN(CCN(CC(=O)O)CC(=O)O)CC(=O)O [EDTA]	~8	
B1		42
